experiment: In vitro inhibitory activity against [3H]DTG binding to Sigma opioid receptor in guinea pig brain membrane homogenates

IC50 [nM] | Structure (SMILES)
118 | Cc1cc([N+](=O)[O-])ccc1NC(N)=Nc1cccc(O)c1
4 | NC(=NC1CC2CCC1C2)Nc1ccccc1I (stereo not given)
207 | Cc1ccccc1N=C(N)Nc1cccc(O)c1
90 | N=C(NCc1ccccc1)NCc1ccccc1
6 | Cc1ccccc1NC(N)=NC1CC2CCC1C2 (stereo not given)
540 | NC(=Nc1ccc(Br)cc1)Nc1ccc(Br)cc1
37 | Cc1cc([N+](=O)[O-])ccc1N=C(N)Nc1ccccc1C
12 | Cc1ccccc1N=C(N)NC1CCCCC1
760 | Cc1cc([N+](=O)[O-])ccc1/N=C(/N)Nc1ccc([N+](=O)[O-])cc1C
6 | NC(=Nc1ccccc1I)NC12CC3CC(CC(C3)C1)C2

From BindingDB's records for doi:10.1021/jm00171a016 (University of Oregon, 1990)
